Reference: publication PMC10586451, “Design, Synthesis, Pharmacological Activities, Structure–Activity Relationship, and In Silico Studies of Novel 5-Substituted-2-(morpholinoimino)-thiazolidin-4-ones” (ACS Omega, 2023)
Where “and” joins values, the source holds several entries; their conditions need not be identical. Identical values can stand only once. Like-named read-outs stand apart in the source and are kept apart here.

Tests used:
[1] = DPPH radical scavenging assay; settings: mean ± SEM of three parallel measurements
Description: (§1) DMSO solutions of four different concentrations (12.5, 25, 50, and 100 μM) of the synthesized compound 1–26 were prepared. DMSO was used as a control, while BHA and α-TOC were used as antioxidant standards.

[2] = biological target: T1, butyrylcholinesterase (BChE) (Equus caballus, UniProt P81908); assay: biochemical; settings: for IC50: mean ± SEM of three parallel measurements
T1 construct: butyrylcholinesterase (BChE) from horse serum; from tissue; host or cells: horse serum
T1 sequence (P81908 whole entry): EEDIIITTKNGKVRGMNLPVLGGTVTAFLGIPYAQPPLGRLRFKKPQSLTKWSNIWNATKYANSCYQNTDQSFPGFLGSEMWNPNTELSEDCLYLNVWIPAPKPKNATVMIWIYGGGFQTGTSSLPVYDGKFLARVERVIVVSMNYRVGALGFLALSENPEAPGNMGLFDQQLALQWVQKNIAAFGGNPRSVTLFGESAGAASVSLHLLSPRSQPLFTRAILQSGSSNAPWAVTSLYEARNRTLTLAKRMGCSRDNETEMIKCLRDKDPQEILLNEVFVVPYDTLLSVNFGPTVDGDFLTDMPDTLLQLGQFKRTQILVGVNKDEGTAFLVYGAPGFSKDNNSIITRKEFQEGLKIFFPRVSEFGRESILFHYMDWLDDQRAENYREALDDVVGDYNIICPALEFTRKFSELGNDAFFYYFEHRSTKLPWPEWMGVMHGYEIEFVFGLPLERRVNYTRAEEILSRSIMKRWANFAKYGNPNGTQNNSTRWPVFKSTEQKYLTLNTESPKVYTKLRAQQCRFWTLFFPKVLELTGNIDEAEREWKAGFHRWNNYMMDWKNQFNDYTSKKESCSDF
Description: (§2) Anticholinesterase activity of all was performed according to the Ellman’s method using a 96-well microplate reader. Acetylcholinesterase (AChE) from electric eel and butyrylcholinesterase (BChE) from horse serum were used. Acetylthiocholine iodide and butyrylthiocholine chloride were utilized as substrates. DTNB (5,50-dithiobis(2-nitrobenzoic) acid was used as a coloring agent to measure the anticholinesterase activity.[43] Measurements were obtained in triplicate.

[3] = biological target: T2, Acetylcholinesterase (AChE) (Electrophorus electricus, UniProt O42275); assay: biochemical; settings: for IC50: mean ± SEM of three parallel measurements
T2 construct: Acetylcholinesterase (AChE) from electric eel; from tissue; host or cells: electric eel
T2 sequence (O42275 24-633): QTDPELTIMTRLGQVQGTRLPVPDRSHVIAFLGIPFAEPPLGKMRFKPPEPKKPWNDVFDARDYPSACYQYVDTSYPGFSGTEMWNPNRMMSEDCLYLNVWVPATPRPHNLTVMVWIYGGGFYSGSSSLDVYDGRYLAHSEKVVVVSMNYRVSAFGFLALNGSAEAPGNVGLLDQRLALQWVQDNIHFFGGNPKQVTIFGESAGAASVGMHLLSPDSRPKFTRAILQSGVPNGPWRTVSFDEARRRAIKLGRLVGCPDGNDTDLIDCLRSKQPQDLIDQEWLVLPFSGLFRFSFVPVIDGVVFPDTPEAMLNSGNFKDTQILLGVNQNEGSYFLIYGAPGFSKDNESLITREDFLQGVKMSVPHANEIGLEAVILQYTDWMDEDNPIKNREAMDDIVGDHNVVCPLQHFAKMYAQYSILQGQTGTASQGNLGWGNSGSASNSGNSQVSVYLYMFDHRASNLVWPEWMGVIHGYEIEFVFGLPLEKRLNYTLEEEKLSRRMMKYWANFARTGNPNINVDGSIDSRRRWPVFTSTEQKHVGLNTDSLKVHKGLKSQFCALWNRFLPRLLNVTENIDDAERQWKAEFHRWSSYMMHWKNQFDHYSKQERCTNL
Description: as §2

[4] = ABTS cation radical scavenging assay; settings: mean ± SEM of three parallel measurements
Description: as §1

[5] = β-carotene-linoleic acid assay (antioxidant); settings: mean ± SEM of three parallel measurements
Description: as §1

urease = urease (Canavalia ensiformis, UniProt P07374); assay: biochemical
Sequence of urease (P07374 whole entry, looked up): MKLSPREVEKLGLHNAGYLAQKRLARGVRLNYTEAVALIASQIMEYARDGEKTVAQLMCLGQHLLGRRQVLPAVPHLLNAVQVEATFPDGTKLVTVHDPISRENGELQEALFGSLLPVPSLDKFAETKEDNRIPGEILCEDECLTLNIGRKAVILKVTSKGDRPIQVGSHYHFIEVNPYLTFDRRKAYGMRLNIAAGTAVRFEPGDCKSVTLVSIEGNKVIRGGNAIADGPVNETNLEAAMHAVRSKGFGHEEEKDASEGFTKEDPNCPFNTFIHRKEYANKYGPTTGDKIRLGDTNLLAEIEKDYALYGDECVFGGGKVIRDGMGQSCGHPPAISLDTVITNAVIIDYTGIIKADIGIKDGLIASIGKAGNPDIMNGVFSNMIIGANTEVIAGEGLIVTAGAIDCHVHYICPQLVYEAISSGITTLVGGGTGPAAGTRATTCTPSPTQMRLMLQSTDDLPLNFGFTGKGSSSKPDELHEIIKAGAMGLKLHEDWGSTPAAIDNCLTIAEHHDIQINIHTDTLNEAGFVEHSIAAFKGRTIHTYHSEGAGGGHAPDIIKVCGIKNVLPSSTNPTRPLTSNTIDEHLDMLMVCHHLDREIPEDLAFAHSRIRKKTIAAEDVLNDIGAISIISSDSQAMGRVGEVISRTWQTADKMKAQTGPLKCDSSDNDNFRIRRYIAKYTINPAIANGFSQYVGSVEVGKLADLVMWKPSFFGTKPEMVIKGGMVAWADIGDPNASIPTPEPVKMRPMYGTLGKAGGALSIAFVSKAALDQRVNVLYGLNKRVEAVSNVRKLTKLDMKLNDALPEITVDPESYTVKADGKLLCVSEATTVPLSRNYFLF

[6] = CUPRAC assay (Cu(II) reducing power); settings: concentration at 0.500 absorbance; mean ± SEM
Description: as §1

tyrosinase = assay type: biochemical; settings: mean ± SEM of three parallel measurements
[7] = Selectivity index: IC50 for AChE/IC50 for BChE
[8] = Selectivity index: IC50 for BChE/IC50 for AChE
[9] = urease activity IC50, mean ± SEM of three parallel measurements

Compound	IC50 [1]	SI for BChE [2, 7]	IC50 [2]	SI for AChE [3, 8]	IC50 [3]	IC50 [4]	IC50 [5]	IC50 (urease; [9])	CUPRAC assay A0.5 [6]	IC50 (tyrosinase)	SI for BChE [2]	SI for AChE [3]	IC50 (urease; mean ± SEM of three parallel measurements, read-out: urease activity IC50)
CN(C)c1ccc(C=C2SC(=NN3CCOCC3)N(c3ccccc3)C2=O)cc1 [Compound 10]	37.43 ± 0.29 µM	0.71	37.53 ± 0.2 µM	1.42	26.48 ± 0.25 µM	30.1 ± 0.69 µM	34.23 ± 0.2 µM	49.3 ± 0.55 µM	28.65 ± 0.00 µM	25000 ± 670 µM			
O=C1C(=Cc2ccc(N(CCCl)CCCl)cc2)SC(=NN2CCOCC2)N1c1ccccc1 [Compound 11]	24.6 ± 0.8 µM		32.8 ± 0.48 µM		21.45 ± 0.06 µM	23.2 ± 0.34 µM	11.9 ± 1.3 µM	31.5 ± 0.49 µM	11.82 ± 0.00 µM	23400 ± 500 µM	0.66	1.53	
O=C1C(=Cc2ccc(N3CCCC3)cc2)SC(=NN2CCOCC2)N1c1ccccc1 [Compound 12, 2-(Morpholinoimino)-3-phenyl-5-(4-(pyrrolidin-1-yl)benzylidene)thiazolidine-4-one]	26.1 ± 0.44 µM	0.71	24.4 ± 0.51 µM	1.40	17.4 ± 0.22 µM	24.7 ± 0.25 µM	16.2 ± 0.66 µM	24.2 µM and 23.6 µM	20.77 ± 0.03 µM	24800 ± 770 µM			
O=C1C(=Cc2ccc(N3CCCCC3)cc2)SC(=NN2CCOCC2)N1c1ccccc1 [Compound 13, 2-(Morpholinoimino)-3-phenyl-5-(4-(piperidin-1-yl)benzylidene)thiazolidine-4-one]	29 ± 0.29 µM	0.62	32.21 ± 0.11 µM	1.61	20 ± 0.37 µM	27.16 ± 0.06 µM	20.2 ± 0.14 µM	30.3 ± 0.95 µM	23.66 ± 0.02 µM	26200 ± 1110 µM			
O=C1C(=Cc2ccc(N3CCOCC3)cc2)SC(=NN2CCOCC2)N1c1ccccc1 [Compound 14, 2-(Morfolinoimino)-3-phenyl-5-(4-(morpholin-1-yl)benzylidene)thiazolidine-4-one]	33.86 ± 0.11 µM	0.75	25.7 ± 1.05 µM	1.34	19.2 ± 0.61 µM	30.3 ± 0.36 µM	26.31 ± 0.03 µM	26.7 ± 0.52 µM	27.43 ± 0.00 µM	8100 ± 220 µM			
O=C1C(=Cc2ccco2)SC(=NN2CCOCC2)N1c1ccccc1 [Compound 15, 5-(Furan-2-ylmethylene)-2-(morpholinoimino)-3-phenylthiazolidin-4-one]	35.05 ± 0.29 µM	0.73	37.6 ± 0.61 µM	1.37	27.4 ± 0.76 µM	32.2 ± 0.87 µM	29.7 ± 0.34 µM	46.4 ± 1.08 µM	31.24 ± 0.00 µM	5190 ± 30 µM			
O=C1C(=Cc2ccsc2)SC(=NN2CCOCC2)N1c1ccccc1 [Compound 16, 2-(Morpholinoimino)-3-phenyl-5-(thiophen-3-ylmethylene) thiazolidine-4-one]	36.21 ± 0.17 µM	0.69	42.5 ± 0.18 µM	1.46	29 ± 1.03 µM	35.7 ± 1.61 µM	31.4 ± 1.01 µM	42 ± 0.81 µM	16.94 ± 0.01 µM	24080 ± 150 µM			
Cc1ccsc1C=C1SC(=NN2CCOCC2)N(c2ccccc2)C1=O [Compound 17, 5-((3-Methylthiophene-2-yl)methylene)-2-(morpholinoimino)-3-phenylthiazolidin-4-one]	36 ± 1 µM	0.70	49.8 ± 1.01 µM	1.43	34.8 ± 0.53 µM	33.2 ± 0.65 µM	36 ± 0.58 µM	40.22 ± 0.12 µM	27.65 ± 0.01 µM	3220 ± 700 µM			
O=C1C(=Cc2ccc[nH]2)SC(=NN2CCOCC2)N1c1ccccc1 [Compound 18, 5-((1H-Pyrrol-2-yl)methylene)-2-(morpholinoimino)-3-phenylthiazolidin-4-one]	35.07 ± 0.03 µM	0.65	32.9 ± 0.75 µM	1.54	21.4 ± 0.92 µM	31.04 ± 0.17 µM	33.62 ± 0.04 µM	20.2 ± 0.77 µM	26.60 ± 0.02 µM	16000 ± 410 µM			
NC(N)=S [thiourea, reference compound]													24.2 ± 0.3 µM
Cc1c(C)c2c(c(C)c1O)CC[C@@](C)(CCC[C@H](C)CCC[C@H](C)CCCC(C)C)O2 [α-TOC, reference compound]	12.26 ± 0.07 µM					4.87 ± 0.45 µM	4.5 ± 0.09 µM		40.48 ± 0.02 µM				
